# Values joined by “and” are separate entries in the source; they are usually repeats but may differ in a detail not shown here. Equal entries are not always repeated.
# Experiments:
# Type in all cases: cell-based
# [1] = system: Gram positive and Gram negative bacteria; assay: Antimicrobial activity, summary of TABLES 16-18
# Protocol: The new class of fluorinated triazapentadiene compounds with and without metal complexation as described herein were analyzed for antibacterial activity against several bacterial strains (both Gram positive and Gram negative). Methods for antimicrobial analysis included a modified Kirby-Bauer method and a determination of their minimum inhibitory concentrations. In brief, the modified Kirby-Bauer method relied on placement of a filter disk impregnated with a desired compound on a solid growth medium. Bacteria were grown to a confluent lawn and the extent of growth inhibition was measured (e.g., as an extent/percentage of a clear zone on the disk and/or solid medium).
# For MIC assessment, compounds were initially dissolved in DMSO and serial dilutions of soluble compounds were made in LB broth.
# [2] = system: Pseudomonas aeruginosa PAO1; assay: Minimum inhibitory concentration in LB broth, P. aeruginosa; conditions: for Relative to AgNO3: efficacy per mole from MIC values
# Bacillus subtilis W168 [3] = assay: Disk sensitivity test (modified Kirby-Bauer), B. subtilis;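 note: Compound-loaded filter disks on LB agar plates seeded with a bacterial lawn, plates held overnight at 37 °C, then the clear zone around each disk measured, compounds in DMSO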
# Protocol: (§1) Filter disks were provided as sterile filter paper (about 6 mm in diameter) and spotted with 20 μL of a selected compound. Each compound was initially dissolved in dimethylsulfoxide (DMSO); any subsequent dilutions were also made in DMSO. Each filter was placed on an LB agar plate spread with 100 μL of a bacterial culture that had been grown overnight in suitable LB broth. Plates were incubated overnight at 37° C., after which, the extent of growth inhibition around each filter disk was measured. Bacterial strains included Staphylococcus aureus (ATCC 25923), Pseudomonas aeruginosa PAO1, Bacillus subtilis W168 and Escherichia coli HB101. […] The latter two strains are non-pathogenic Gram-positive and Gram-negative bacterial strains, respectively.
# [4] = system: Staphylococcus aureus (ATCC 25923); assay: Minimum inhibitory concentration in LB broth, S. aureus; conditions: for Relative to AgNO3: efficacy per mole from MIC values
# [5] = system: Pseudomonas aeruginosa PAO1; assay: Disk sensitivity test (modified Kirby-Bauer), P. aeruginosa;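 note: Compound-loaded filter disks on LB agar lawns, DMSO as solvent, zone of inhibition around each disk read after overnight incubation at 37 °C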
# Protocol: as §1
# Escherichia coli HB101 [6] = assay: Disk sensitivity test (modified Kirby-Bauer), E. coli;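 note: filter disk loaded with compound in DMSO laid on an LB agar bacterial lawn, kept overnight at 37 °C, then the inhibition zone around the disk is measured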
# Protocol: as §1
# [7] = system: Staphylococcus aureus (ATCC 25923); assay: Disk sensitivity test (modified Kirby-Bauer), S. aureus;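 note: Compound-loaded filter disks on LB agar plates seeded with a confluent bacterial lawn, compound dissolved in DMSO, plates kept overnight at 37 °C, then inhibition zone around disk measured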
# Protocol: as §1
# Bacillus subtilis W168 [8] = assay: Minimum inhibitory concentration in LB broth, B. subtilis; conditions: for Relative to AgNO3: efficacy per mole from MIC values
# Escherichia coli HB101 [9] = assay: Minimum inhibitory concentration in LB broth, E. coli; conditions: for Relative to AgNO3: efficacy per mole from MIC values;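 for all read-outs here: broth dilution MIC, test compounds first taken up in DMSO, then serially diluted in LB medium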
# [10] = 1.00 × 10^0 μg/ml (printed 5.9 × 10^−6 mM)
# [11] = 1.00 × 10^1 μg/ml (5.9 × 10^−5 mM)
# [12] = 1.00 × 10^2 μg/ml (5.9 × 10^−4 mM [sic])
# [13] = 1.00 × 10^3 μg/ml (printed 5.9 × 10^−3 mM)
# [14] = 1.00 × 10^4 μg/ml (printed 5.9 × 10^−2 mM)
smiles,measurement,setting,value
Fc1c(F)c(F)c(N=C(N=C(Nc2c(F)c(F)c(F)c(F)c2F)C(F)(F)C(F)(F)C(F)(F)F)C(F)(F)C(F)(F)C(F)(F)F)c(F)c1F [[N{(C3F7)C(C6F5)N}2]H],antimicrobial activity (in words),[1],Effective
same,MIC,[2],2643.48 μg/ml and 3.58 mM
same,Relative to AgNO3,[2],5.14 × 10^−3
same,Diameter of the zone of growth inhibition,Bacillus subtilis W168 [3]; 5.7 × 10^0 mM,39.0 mm
same,Diameter of the zone of growth inhibition,Bacillus subtilis W168 [3]; 5.7 × 10^1 mM,71.0 mm
same,Diameter of the zone of growth inhibition,Bacillus subtilis W168 [3]; 5.7 × 10^−1 mM,47.0 mm
same,Diameter of the zone of growth inhibition,Bacillus subtilis W168 [3]; 5.7 × 10^−2 mM,22.0 mm
same,Diameter of the zone of growth inhibition,Bacillus subtilis W168 [3]; 5.7 × 10^−3 mM,10.0 mm
same,Diameter of the zone of growth inhibition,Bacillus subtilis W168 [3]; 5.7 × 10^−4 mM,8.0 mm
same,Diameter of the zone of growth inhibition,Bacillus subtilis W168 [3]; 5.7 × 10^−5 mM,6.0 (NZ) mm
same,Diameter of the zone of growth inhibition,Bacillus subtilis W168 [3]; 5.7 × 10^−6 mM,6.0 (NZ) mm
same,Diameter of the zone of growth inhibition,Bacillus subtilis W168 [3]; 5.7 × 10^−7 mM,6.0 (NZ) mm
same,MIC,[4],1.57 μg/ml and 2.12 × 10^−3 mM
same,Relative to AgNO3,[4],34.71
same,Diameter of the zone of growth inhibition,[5]; 5.7 × 10^0 mM,8.0 mm
same,Diameter of the zone of growth inhibition,[5]; 5.7 × 10^1 mM,9.0 mm
same,Diameter of the zone of growth inhibition,[5]; 5.7 × 10^−1 mM,8.0 mm
same,Diameter of the zone of growth inhibition,[5]; 5.7 × 10^−2 mM,8.0 mm
same,Diameter of the zone of growth inhibition,[5]; 5.7 × 10^−3 mM,7.0 mm
same,Diameter of the zone of growth inhibition,Escherichia coli HB101 [6]; 5.7 × 10^0 mM,9.0 mm
same,Diameter of the zone of growth inhibition,Escherichia coli HB101 [6]; 5.7 × 10^1 mM,9.5 mm
same,Diameter of the zone of growth inhibition,Escherichia coli HB101 [6]; 5.7 × 10^−1 mM,9.0 mm
same,Diameter of the zone of growth inhibition,Escherichia coli HB101 [6]; 5.7 × 10^−2 mM,8.5 mm
same,Diameter of the zone of growth inhibition,Escherichia coli HB101 [6]; 5.7 × 10^−3 mM,7.0 mm
same,Diameter of the zone of growth inhibition,[7]; 5.7 × 10^0 mM,37.5 mm
same,Diameter of the zone of growth inhibition,[7]; 5.7 × 10^1 mM,75.0 mm
same,Diameter of the zone of growth inhibition,[7]; 5.7 × 10^−1 mM,40.0 mm
same,Diameter of the zone of growth inhibition,[7]; 5.7 × 10^−2 mM,19.0 mm
same,Diameter of the zone of growth inhibition,[7]; 5.7 × 10^−3 mM,9.0 mm
same,Diameter of the zone of growth inhibition,[7]; 5.7 × 10^−4 mM,6.0 (NZ) mm
same,Diameter of the zone of growth inhibition,[7]; 5.7 × 10^−5 mM,6.0 (NZ) mm
same,Diameter of the zone of growth inhibition,[7]; 5.7 × 10^−6 mM,6.0 (NZ) mm
same,Diameter of the zone of growth inhibition,[7]; 5.7 × 10^−7 mM,6.0 (NZ) mm
same,MIC,Bacillus subtilis W168 [8],1.57 μg/ml and 2.12 × 10^−3 mM
same,Relative to AgNO3,Bacillus subtilis W168 [8],69.34
same,MIC,Escherichia coli HB101 [9],2643.48 μg/ml and 3.58 mM
same,Relative to AgNO3,Escherichia coli HB101 [9],1.65 × 10^−2
"O=[N+]([O-])[O-].[Ag+] [AgNO3, reference compound]",MIC,[2],3.12 μg/ml and 1.84 × 10^−2 mM
same,Relative to AgNO3,[2],1.00
same,Diameter of the zone of growth inhibition,Bacillus subtilis W168 [3]; [10],9.0 mm
same,Diameter of the zone of growth inhibition,Bacillus subtilis W168 [3]; [11],9.5 mm
same,Diameter of the zone of growth inhibition,Bacillus subtilis W168 [3]; [12],13.0 mm
same,Diameter of the zone of growth inhibition,Bacillus subtilis W168 [3]; [13],13.0 mm
same,Diameter of the zone of growth inhibition,Bacillus subtilis W168 [3]; (printed 5.9 × 10^−2 mM),16.0 mm
same,MIC,[4],12.50 μg/ml and 7.36 × 10^−2 mM
same,Relative to AgNO3,[4],1.00
same,Diameter of the zone of growth inhibition,[5]; [10],6.0 (NZ) mm
same,Diameter of the zone of growth inhibition,[5]; [11],6.0 (NZ) mm
same,Diameter of the zone of growth inhibition,[5]; [12],9.5 mm
same,Diameter of the zone of growth inhibition,[5]; [13],12.5 mm
same,Diameter of the zone of growth inhibition,[5]; [14],16.0 mm
same,Diameter of the zone of growth inhibition,Escherichia coli HB101 [6]; [10],7.0 mm
same,Diameter of the zone of growth inhibition,Escherichia coli HB101 [6]; [11],8.5 mm
same,Diameter of the zone of growth inhibition,Escherichia coli HB101 [6]; [12],13.0 mm
same,Diameter of the zone of growth inhibition,Escherichia coli HB101 [6]; [13],14.0 mm
same,Diameter of the zone of growth inhibition,Escherichia coli HB101 [6]; [14],15.0 mm
same,Diameter of the zone of growth inhibition,[7]; [10],6.0 (NZ) mm
same,Diameter of the zone of growth inhibition,[7]; [11],7.0 mm
same,Diameter of the zone of growth inhibition,[7]; [12],8.5 mm
same,Diameter of the zone of growth inhibition,[7]; [13],9.0 mm
same,Diameter of the zone of growth inhibition,[7]; [14],10.5 mm
same,MIC,Bacillus subtilis W168 [8],25.00 μg/ml and 1.47 × 10^−1 mM
same,Relative to AgNO3,Bacillus subtilis W168 [8],1.00
same,MIC,Escherichia coli HB101 [9],10.0 μg/ml and 5.89 × 10^−2 mM
same,Relative to AgNO3,Escherichia coli HB101 [9],1.00
